Measured values reported in ChEMBL document CHEMBL1201862, “PubChem BioAssay data set” (2004).
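Briefly, cells in 96-well plates were exposed to five compound concentrations for 48 h, and endpoints were estimated by linear interpolation. GI50 = concentration required for 50% inhibition of growth.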 Calls of active or inactive are those of the source. Cut-off read from the data, not from the text of the source: active = GI50 up to about 1.1 µM and inactive = higher.

Assays:
Assay in all cases: inhibition of tumour cell growth, NCI panel, 48 h
[1] = system: RXF 393
[2] = system: DU-145
[3] = system: TK-10
[4] = system: A549
[5] = system: HL-60
[6] = system: BT-549
[7] = system: K562
[8] = system: HCT-15
[9] = system: A498
[10] = system: MDA-MB-435
[11] = system: NCI-H460
[12] = system: Hs-578T
[13] = system: SNB-19
[14] = system: MCF7
[15] = system: SF-268
[16] = system: NCI-H226
[17] = system: MDA-MB-231
[18] = system: UACC-62
[19] = system: CCRF-CEM
[20] = system: SK-OV-3
[21] = system: SK-MEL-28
[22] = system: SN12C
[23] = system: NCI-H522
[24] = system: PC-3
[25] = system: UO-31
[26] = system: SNB-75
[27] = system: 786-0
[28] = system: COLO 205
[29] = system: OVCAR-3
[30] = system: SW-620
[31] = system: Malme-3M
[32] = system: UACC-257
[33] = system: ACHN
[34] = system: HCC 2998
[35] = system: OVCAR-5
[36] = system: SK-MEL-5
[37] = system: HT-29
[38] = system: SF-295
[39] = system: HCT-116
[40] = system: NCI-H23
[41] = system: NCI/ADR-RES
[42] = system: M14
[43] = system: SF-539
[44] = system: MDA-N
[45] = system: SK-MEL-2
[46] = system: LOX IMVI
[47] = system: U-251
[48] = system: HOP-92
[49] = system: IGROV-1
[50] = system: HOP-62
[51] = system: OVCAR-4
[52] = system: CAKI-1
[53] = system: OVCAR-8
[54] = system: T47D
[55] = system: KM12
[56] = system: SR
[57] = system: MOLT-4
[58] = system: EKVX
[59] = system: RPMI-8226

COc1ccc(CCN2CCc3c(C)c(C#N)c4nc5ccccc5n4c32)cc1OC
GI50 [1]: 30.8 µM (inactive)
GI50 [2]: 81.7 µM (inactive)
GI50 [3]: 64.1 µM (inactive)
GI50 [4]: 45.9 µM (inactive)
GI50 [5]: 33.9 µM (inactive)
GI50 [6]: 27.2 µM (inactive)
GI50 [7]: 15.6 µM (inactive)
GI50 [8]: 29 µM
GI50 [9]: 54.6 µM (inactive)
GI50 [10]: 14.3 µM (inactive)
GI50 [11]: 20.2 µM (inactive)
GI50 [12]: 12.9 µM (inactive)
GI50 [13]: > 100 µM (inactive)
GI50 [14]: 18 µM (inactive)
GI50 [15]: 35.1 µM (inactive)
GI50 [16]: 27.5 µM (inactive)
GI50 [17]: 19.1 µM (inactive)
GI50 [18]: 24.2 µM (inactive)
GI50 [19]: 35.4 µM (inactive)
GI50 [20]: 81.3 µM (inactive)
GI50 [21]: 39.5 µM (inactive)
GI50 [22]: 34.2 µM (inactive)
GI50 [23]: 21.4 µM (inactive)
GI50 [24]: 25.9 µM (inactive)
GI50 [25]: 36.3 µM (inactive)
GI50 [26]: 24.8 µM (inactive)
GI50 [27]: 56.8 µM (inactive)
GI50 [28]: 30.3 µM (inactive)
GI50 [29]: 27.2 µM (inactive)
GI50 [30]: 26.6 µM (inactive)
GI50 [31]: 28.7 µM (inactive)
GI50 [32]: 33.2 µM (inactive)
GI50 [33]: 64.6 µM (inactive)
GI50 [34]: 40.7 µM (inactive)
GI50 [35]: > 100 µM (inactive)
GI50 [36]: 19.6 µM (inactive)
GI50 [37]: 32.6 µM (inactive)
GI50 [38]: 42.4 µM (inactive)
GI50 [39]: 28.7 µM (inactive)
GI50 [40]: 45.3 µM (inactive)
GI50 [41]: 27.4 µM (inactive)
GI50 [42]: > 100 µM (inactive)
GI50 [43]: 49.9 µM (inactive)
GI50 [44]: 19.1 µM (inactive)
GI50 [45]: 16.3 µM (inactive)
GI50 [46]: 37.7 µM (inactive)
GI50 [47]: 15.6 µM (inactive)
GI50 [48]: 22.8 µM (inactive)
GI50 [49]: 37.2 µM (inactive)
GI50 [50]: 33.7 µM (inactive)
GI50 [51]: 26 µM (inactive)
GI50 [52]: > 100 µM (inactive)
GI50 [53]: 35.3 µM (inactive)

CCOC(=O)CCC(C(=O)OCC)n1nc2ccc(Nc3c(C)[n+]([O-])c4ccc(Cl)cc4[n+]3[O-])cc2n1 (centres undefined)
GI50 [1]: 13 µM (inactive)
GI50 [2]: 20.1 µM (inactive)
GI50 [3]: 28.9 µM (inactive)
GI50 [4]: 17.6 µM (inactive)
GI50 [54]: 21.7 µM (inactive)
GI50 [5]: 38.2 µM (inactive)
GI50 [6]: 28.1 µM (inactive)
GI50 [55]: 56.8 µM (inactive)
GI50 [7]: 41.4 µM (inactive)
GI50 [8]: 17.6 µM
GI50 [9]: 23.6 µM (inactive)
GI50 [10]: 30.2 µM (inactive)
GI50 [11]: 17 µM (inactive)
GI50 [12]: 21.4 µM (inactive)
GI50 [13]: 30.1 µM (inactive)
GI50 [14]: 24.1 µM (inactive)
GI50 [15]: 12.2 µM (inactive)
GI50 [16]: 20.3 µM (inactive)
GI50 [18]: 26.6 µM (inactive)
GI50 [19]: 41.2 µM (inactive)
GI50 [20]: 21.2 µM (inactive)
GI50 [22]: 18.9 µM (inactive)
GI50 [23]: 30.1 µM (inactive)
GI50 [24]: 26.5 µM (inactive)
GI50 [25]: 15.5 µM (inactive)
GI50 [27]: 16.5 µM (inactive)
GI50 [28]: 32.7 µM (inactive)
GI50 [29]: 24.9 µM (inactive)
GI50 [30]: 33.7 µM (inactive)
GI50 [31]: 30.1 µM (inactive)
GI50 [32]: 24.5 µM (inactive)
GI50 [33]: 15.8 µM (inactive)
GI50 [34]: 2.93 µM (inactive)
GI50 [35]: 30.9 µM (inactive)
GI50 [36]: 21.8 µM (inactive)
GI50 [37]: 30.9 µM (inactive)
GI50 [38]: 16.8 µM (inactive)
GI50 [39]: 20.6 µM (inactive)
GI50 [40]: 21.5 µM (inactive)
GI50 [41]: 18.8 µM (inactive)
GI50 [42]: 24.1 µM (inactive)
GI50 [43]: 20.7 µM (inactive)
GI50 [44]: 42.8 µM (inactive)
GI50 [45]: 20 µM (inactive)
GI50 [56]: 34.1 µM (inactive)
GI50 [46]: 14.4 µM (inactive)
GI50 [47]: 15 µM (inactive)
GI50 [57]: 27.9 µM (inactive)
GI50 [48]: 20.9 µM (inactive)
GI50 [49]: 42.4 µM (inactive)
GI50 [50]: 17 µM (inactive)
GI50 [58]: 17.5 µM (inactive)
GI50 [51]: 28.8 µM (inactive)
GI50 [59]: 44.9 µM (inactive)
GI50 [52]: 33.1 µM (inactive)
GI50 [53]: 21.5 µM (inactive)
